Key:
[1] = target: T1, 3',5'-cyclic-AMP phosphodiesterase 4B (Homo sapiens, UniProt Q07343); test: Inhibition of recombinant human PDE4B expressed in baculovirus infected Sf9 cells at 10 uM using [3H] cAMP as substrate after 30 min by scintillation proximity assay relative to control
[2] = target: T2, 3',5'-cyclic-AMP phosphodiesterase 4D (Homo sapiens, UniProt Q08499); test: Inhibition of PDE4D2 (unknown origin) at 30 uM relative to control
[3] = target: T1, 3',5'-cyclic-AMP phosphodiesterase 4B; test: Inhibition of recombinant human PDE4B expressed in baculovirus infected Sf9 cells using [3H] cAMP as substrate after 30 min by scintillation proximity assay
CAL-27 = test: Antiproliferative activity against human CAL27 cells assessed as growth inhibition at 10 uM incubated for 72 hrs by sulforhodamine B assay; format: functional; details: CAL-27, 72 h, read-out: GI
[4] = Intrinsic clearance in rat liver microsomes at 5 uM after 60 mins; format: ADME, Microsome; details: read-out: CLH
[5] = Half life in rat liver microsomes at 5 uM incubated for 60 mins; format: ADME, Microsome
[6] = target: T2, 3',5'-cyclic-AMP phosphodiesterase 4D; test: Inhibition of PDE4D2 (unknown origin) at 10 uM relative to control
Homo sapiens = species: Homo sapiens; test: Selectivity ratio of inhibition of PDE4D2 (unknown origin) to inhibition of recombinant human PDE4B expressed in baculovirus infected Sf9 cells using [3H] cAMP as substrate after 30 min
[7] = Metabolic stability in rat liver microsomes assessed as parent compound remaining at 5 uM after 60 mins; format: ADME, Microsome; details: read-out: Stability
Phosphodiesterase 4 = Phosphodiesterase 4 (Homo sapiens, UniProt P27815+Q08499+Q07343+Q08493); test: Inhibition of PDE4 (unknown origin) assessed as inhibition of TNF-alpha release; format: protein assay
[8] = target: T1, 3',5'-cyclic-AMP phosphodiesterase 4B; details: Sf9, 10 nM
Description: Inhibition of recombinant human PDE4B expressed in baculovirus infected Sf9 cells at 10 nM using [3H] cAMP as substrate after 30 min by scintillation proximity assay relative to control

[9] = target: T2, 3',5'-cyclic-AMP phosphodiesterase 4D; test: Inhibition of PDE4D2 (unknown origin) at 10 nM relative to control

T1 sequence (Q07343 whole entry): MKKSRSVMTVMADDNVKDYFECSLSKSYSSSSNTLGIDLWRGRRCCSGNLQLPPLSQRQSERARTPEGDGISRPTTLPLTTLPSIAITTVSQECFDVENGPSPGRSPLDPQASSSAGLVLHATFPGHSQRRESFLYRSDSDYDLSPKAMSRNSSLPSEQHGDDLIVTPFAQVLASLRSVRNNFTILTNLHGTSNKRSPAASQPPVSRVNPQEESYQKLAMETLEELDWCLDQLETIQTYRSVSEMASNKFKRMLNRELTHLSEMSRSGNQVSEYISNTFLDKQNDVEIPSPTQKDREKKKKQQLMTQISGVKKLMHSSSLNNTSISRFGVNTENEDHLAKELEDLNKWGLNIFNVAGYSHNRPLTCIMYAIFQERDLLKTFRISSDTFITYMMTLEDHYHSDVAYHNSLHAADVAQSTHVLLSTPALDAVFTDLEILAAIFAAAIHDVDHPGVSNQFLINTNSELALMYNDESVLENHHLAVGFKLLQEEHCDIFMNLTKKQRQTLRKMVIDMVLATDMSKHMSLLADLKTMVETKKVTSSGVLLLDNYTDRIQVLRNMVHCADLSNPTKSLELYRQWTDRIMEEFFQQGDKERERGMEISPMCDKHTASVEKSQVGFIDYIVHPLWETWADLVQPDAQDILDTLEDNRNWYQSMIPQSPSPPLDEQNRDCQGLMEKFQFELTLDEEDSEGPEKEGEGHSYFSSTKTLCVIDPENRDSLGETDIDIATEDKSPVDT
T2 sequence (Q08499 whole entry): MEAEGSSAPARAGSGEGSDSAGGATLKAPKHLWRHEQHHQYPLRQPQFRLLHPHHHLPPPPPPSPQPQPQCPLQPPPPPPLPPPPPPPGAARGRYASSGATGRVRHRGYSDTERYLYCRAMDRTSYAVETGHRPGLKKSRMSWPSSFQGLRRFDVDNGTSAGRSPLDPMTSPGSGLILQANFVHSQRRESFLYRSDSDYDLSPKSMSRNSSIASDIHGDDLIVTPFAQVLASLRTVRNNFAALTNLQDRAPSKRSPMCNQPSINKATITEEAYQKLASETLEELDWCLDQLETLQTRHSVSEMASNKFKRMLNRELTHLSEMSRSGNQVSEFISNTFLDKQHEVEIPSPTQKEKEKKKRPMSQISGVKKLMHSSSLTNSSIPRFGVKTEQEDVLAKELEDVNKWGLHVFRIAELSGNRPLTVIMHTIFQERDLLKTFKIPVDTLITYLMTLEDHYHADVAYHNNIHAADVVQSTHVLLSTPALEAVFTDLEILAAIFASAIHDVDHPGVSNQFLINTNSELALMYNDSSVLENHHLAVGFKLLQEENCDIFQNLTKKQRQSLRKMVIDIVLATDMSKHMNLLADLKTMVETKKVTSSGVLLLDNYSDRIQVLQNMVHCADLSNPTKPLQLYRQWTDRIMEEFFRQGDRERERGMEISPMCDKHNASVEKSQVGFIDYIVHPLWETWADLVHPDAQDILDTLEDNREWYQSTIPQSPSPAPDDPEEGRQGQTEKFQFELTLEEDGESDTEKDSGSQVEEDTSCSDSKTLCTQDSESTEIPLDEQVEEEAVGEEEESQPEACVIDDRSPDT

SMILES	inhibition [1] [%]	inhibition at 30 µM [2] [%]	further results
Cc1cc(C)c2c(c1)cc(COCc1ccccc1Nc1cccc(C)c1C)n2S(C)(=O)=O	37.3		
Cc1cccc(Nc2ccccc2COCc2cc3cc(Cl)ccc3n2S(C)(=O)=O)c1C	54.9	33.6	IC50 [3]: 4.48 µM
Cc1cccc(Nc2ccccc2C(=O)O)c1C [MEFENAMIC ACID]	38.9	35.5	
Cc1ccc(S(=O)(=O)n2c(COCc3ccccc3Nc3cccc(C)c3C)cc3ccccc32)cc1	39.9		
Cc1ccc(S(=O)(=O)n2c(COCc3ccccc3Nc3cccc(C)c3C)cc3cc(F)ccc32)cc1	34.6		
Cc1ccc(S(=O)(=O)n2c(COCc3ccccc3Nc3cccc(C)c3C)cc3cc(Br)ccc32)cc1	24.6		
Cc1ccc(S(=O)(=O)n2c(COCc3ccccc3Nc3cccc(C)c3C)cc3cc(Cl)ccc32)cc1	26.8		
Cc1ccc2c(c1)cc(COCc1ccccc1Nc1cccc(C)c1C)n2S(C)(=O)=O	55.1	38.9	IC50 [3]: 4.13 µM
Cc1cccc(Nc2ccccc2COCc2cc3ccccc3n2S(C)(=O)=O)c1C	61.5	40.9	IC50 [3]: 1.76 µM
CCc1ccc2c(c1)cc(COCc1ccccc1Nc1cccc(C)c1C)n2S(=O)(=O)c1ccc(C)cc1	32.1		
Cc1ccc(S(=O)(=O)n2c(COCc3ccccc3Nc3cccc(C)c3C)cc3cc(C)ccc32)cc1	36.2		
Cc1cccc(Nc2ccccc2COCc2cc3cc(F)ccc3n2S(C)(=O)=O)c1C	68	42	inhibition of growth at 10 µM (CAL-27): 55.6%; microsomal CLint at 5 µM [4]: 25.2 µL/min/mg; half-life at 5 µM [5]: 1.83 h; inhibition at 10 µM [6]: 15%; Selectivity ratio (Homo sapiens): 4.5; IC50 [3]: 1.34 µM; remaining at 1 h, 5 µM [7]: 64.9%; IC50 (Phosphodiesterase 4): 5.81 µM; inhibition (Phosphodiesterase 4): Dose-dependent effect
O=C(Nc1c(Cl)cncc1Cl)c1ccc(OC(F)F)c(OCC2CC2)c1 [ROFLUMILAST]			inhibition [8]: 91.6%; inhibition at 0.01 µM [9]: 88.3%
Cc1cccc(Nc2ccccc2COCc2cc3cc(Br)ccc3n2S(C)(=O)=O)c1C	40.4		
Cc1ccc(S(=O)(=O)n2c(COCc3ccccc3Nc3cccc(C)c3C)cc3cc(C)cc(C)c32)cc1	23.1		

— ChEMBL document CHEMBL4627346, “Ultrasound assisted rapid synthesis of mefenamic acid based indole derivatives under ligand free Cu-catalysis: Their pharmacological evaluation” (Bioorg Med Chem Lett, 2020)
